From US6677302B2, “Compositions and methods for the treatment of viral disorders” (The Trustees of Boston University, priority 1996, dated 2004)
“Also recorded” adds a separate entry of the source. Marks after values point to notes of the source that are not given here.

Assays:
[1] = test system: Human Neuroblastoma Cell Line, SK-N-MC; test: Proliferation of neuroblastoma cells, 4 weeks continuous exposure; assay type: cell-based; conditions: no treatment 1 × 10^8
Method: Human neuroblastoma cell line SK-N-MC was studied under different conditions. In this case, the cells were grown for 4 weeks with continuous exposure to sodium butyrate or arginine butyrate, and the cell number was quantitated at the end of this time.

Myeloid Leukemia (HL60) = test: MIC on cell proliferation, 7 days in culture; assay type: cell-based, human
Method: (§1) The ability of arginine butyrate to induce differentiation has been evaluated and is measured by inhibition of growth, in some of the neoplastic cell types previously reported to be sensitive to (sodium) butyric acid, and found arginine butyrate to be as potent as butyric acid. We have also extended that work to additional cell types and found Arginine Butyrate to induce differentiation in these new cell types. Table 1 lists the cell types tested and the minimum inhibitory concentration (MIC) of sodium butyrate (NaB) and arginine butyrate (ArgB) on these cell lines. The MIC is the lowest dose that prevents all growth over the 7 days that the cells are maintained in culture, that is the minimum dose that prevents an increase in cell number. […] The […] of ArgB and NaB were equivalent on all cell lines tested.

[2] = test system: Colonic Adenocarcinoma (HT29); test: MIC on cell proliferation, 7 days in culture; assay type: cell-based, human
Method: as §1

Rhabdomyosarcoma = test: MIC on cell proliferation, 7 days in culture; assay type: cell-based, human
Method: as §1

Erythroleukemia (K562) = test: MIC on cell proliferation, 7 days in culture; assay type: cell-based, human
Method: as §1

Gastric Carcinoma (AGS) = test: MIC on cell proliferation, 7 days in culture; assay type: cell-based, human
Method: as §1

Choriocarcinoma (JAR) = test: MIC on cell proliferation, 7 days in culture; assay type: cell-based, human
Method: as §1

Glioblastoma Multiforme = test: MIC on cell proliferation, 7 days in culture; assay type: cell-based, human
Method: as §1

Osteosarcoma (HOS) = test: MIC on cell proliferation, 7 days in culture; assay type: cell-based, human
Method: as §1

MCF-7 (breast cancer) = test: Survival fraction after 72 hours exposure (MTT assay); assay type: cell-based, human
Method: (§2) Growth inhibition was measured by the MTT assay. Survival fraction is calculated from at least 3 experiments, and differences in survival fraction are statistically significant P<0.05, using the Paired Two-Sample For Means T-Test. […] PC-3=prostate cancer; A549=non-small cell cancer; OvCar=ovarian cancer; CaCo=colon cancer; MCF-7=breast cancer; and SW900=non-small cell lung cancer.

[3] = test system: SW900 (non-small cell lung cancer); test: as above; assay type: cell-based, human
Method: as §2

OvCar (ovarian cancer) = test: as above; assay type: cell-based, human
Method: as §2

PC-3 (prostate cancer) = test: as above; assay type: cell-based, human
Method: as §2

[4] = test system: Colonic Adenocarcinoma (HT 29); test: Differentiation and growth arrest of tumor cell line; assay type: cell-based, human
Method: The effects of arginine butyrate compounds on differentiation of several human tumor cell lines were evaluated by visual inspection and by histochemical and pathological staining:
Inhibition of DNA synthesis (as measured by ^3H-thymidine incorporation) occurred by 6 hours. Expression of the proto-oncogene c-myc was decreased by 2 hours.

[5] = test system: n-myc transcript in neuroblastoma cells; test: Expression of oncogene n-myc transcript; assay type: cell-based, human; conditions: 1 mM
[6] = test system: human malignant cell lines from breast, colon, lung, prostate, ovarian and lymphoid sources; test: Cytotoxicity as single agent, cell death at 72 hours; assay type: cell-based; conditions: all concentrations tested
[7] = Clinical toxicity in patients; assay type: in vivo, human; conditions: for grade 3 or 4 toxicities: patients treated up to 2,000 mg/kg/day
Method: Clinical experience with butyrates have been performed in children with acute myelogenous leukemia in Israel, and in children with neuroblastoma (K. Prasad, Life Sci. 27:1351-58, 1980). […] Eleven pediatric patients and twelve adults with β-hemoglobinopathies were treated with IV arginine butyrate at a starting dose of 500 mg/kg/day for 2-7 weeks. If no side effects were noted, the rate was increased by 250 mg/kg/day to a final rate of 1500 mg/kg/day in 4 patients, and 2000 mg/kg/day in 2 patients. […] This rise in BUN returned to normal within 12 hours of discontinuation of drug, and is thought to be secondary to effect of arginine upon ureagenesis. […] Peak serum levels of butyrate ranged between 0.04-0.05 mM, and butyrate was not detectable 15 minutes after infusion was discontinued. Plasma arginine levels were also rapidly cleared, with a T1/2 of 15 minutes, and baseline arginine levels were reached within 12 hours after discontinuation of infusion.
Three patients with refractory neoplasms (breast, melanoma, adenocarcinoma, of unknown primary) have been enrolled and completed 1-2 cycles of arginine butyrate as a dose of 500 mg/kg/day over 6-8 hours for 10 days.
Three patients (with breast cancer, bowel cancer or Hodgkins disease) have completed two cycles of arginine butyrate at a dose of 750 mg/kg/day for 10 days. […] Otherwise, there was no other objective measures of organ progressed after treatment was topped. […] There was a further resolution of the disease during the second cycle. Disease progression was noted one month after second cycle was completed. At 1000 mg/kg/day, 3 patients have been enrolled on study.
An inter-group dose-escalation study is being conducted in patients with refractory malignancies. There are 3 patients per group with the dose levels starting at 500 mg/kg/day, and increasing by 250 mg/kg/day per group, if toxicity permits. Doses are given by 8 hour IV infusion, daily, for 5 days times 2 weeks, with weekends off, for a total of 10 days of treatment per cycle.

[8] = test system: SY5Y neuroblastoma cell line; test: Induction of apoptosis / DNA fragmentation
[9] = Table 3, 0.5 AB (0.5 mM), 72 hours
[10] = Table 4, 0.5 AB (0.5 mM), 72 hour

arginine butyrate
Cell Number ([1]; 0.05 mM): 1 × 10^5 | Cell Number ([1]; 1.0 mM): <1 × 10 ^3 | MIC (Myeloid Leukemia (HL60)): 78 µM | MIC [2]: 2,000 μM | MIC (Rhabdomyosarcoma): 156 µM | MIC (Erythroleukemia (K562)): 1,250 μM | MIC (Gastric Carcinoma (AGS)): 2,000 μM | MIC (Choriocarcinoma (JAR)): 156 µM | MIC (Glioblastoma Multiforme): 1,000 μM | MIC (Osteosarcoma (HOS)): 312 µM | Survival Fraction (MCF-7 (breast cancer); Table 4, 0.5 AB (0.5 mM)): 0.74* | Survival Fraction (MCF-7 (breast cancer); Table 4, .05 AB): 0.89* | Survival Fraction ([3]; Table 4, 0.5 AB (0.5 mM)): 0.92 | Survival Fraction ([3]; Table 4, .05 AB): 0.95 | Survival Fraction (OvCar (ovarian cancer); [9]): 0.86** | Survival Fraction (OvCar (ovarian cancer); [10]): 0.88* | Survival Fraction (OvCar (ovarian cancer); Table 4, .05 AB, 72 hour): 0.96 | Survival Fraction (PC-3 (prostate cancer); [9]): 0.67* | Survival Fraction (PC-3 (prostate cancer); [10]): 0.74* | Survival Fraction (PC-3 (prostate cancer); Table 4, .05 AB, 72 hour): 0.82* | morphology and differentiation markers [4]: developed a mature brush border, and increased expression of sucrase/isomaltase | time by which expression of proto-oncogene c-myc was decreased [4]: ≤ 2 h | time by which inhibition of DNA synthesis (3H-thymidine incorporation) occurred [4]: ≤ 6 h | growth arrest ([4]; no further growth out to 25 days): absolute growth arrest by day 3-4 | expression of n-myc transcript [5]: decreased approximately Mold | concentrations at which cell death at 72 hours was seen [6]: 0.1 to 5.0 mM | patients with grade 1 nausea/vomiting ([7]; 500 mg/kg/day, three patients): Two of the three patients | patients with grade I nausea/vomiting ([7]; 750 mg/kg/day for 10 days, three patients): One of the three patients; also recorded: One, of the three patients | serum BUN ([7]; 750 mg/kg/day, one patient): transient elevation of serum BUN | time to resolution of BUN elevation and proteinuria after discontinuation ([7]; 750 mg/kg/day, one patient): ≤ 5 days | toxic side effects ([7]; adults, IV infusion of similar doses): no toxic side effects | grade 3 or 4 toxicities ([7]; listed as Arginine butyrate): no grade 3 and no grade 4 toxicities reported | grade 3 or 4 toxicities ([7]; listed as arginine butyrate): no grade 3 or 4 toxicities | organ specific toxicity ([7]; recorded by principal investigators): No organ specific toxicity was recorded | objective toxicities (hepatic, renal, cardiac, pulmonary, hematopoietic) ([7]; refractory neoplasms, 500 mg/kg/day over 6-8 hours for 10 days): no objective toxicities noted | untoward side effects ([7]; three cancer patients, emergency basis, up to 2,000 mg/kg/day, 10 days): no untoward side effects noted | side effect: anorexia ([7]; β-hemoglobinopathies, IV 500-2000 mg/kg/day): Transient anorexia developed in one patient | side effect: serum aminotransferase ([7]; β-hemoglobinopathies, IV 500-2000 mg/kg/day, 2-7 weeks): transient, slight rise in serum aminotransferase | time for rise in BUN to return to normal after discontinuation ([7]; β-hemoglobinopathies, continuous infusion over 2 weeks): ≤ 12 h | apoptosis ([8]; FIG. 1c): induces apoptosis | DNA fragmentation ([8]; both 0.5 and 1.0 mM): significant DNA fragmentation was found
